Earlier results in article PMC11224556, “Next-generation of BBQ analogues that selectively target breast cancer” (Frontiers in Chemistry, 2024).

Assays:
Parameters in all cases: method as in Gilbert et al., 2020
[1] = tested on: MDA-MB-231 breast cancer cells; settings: MDA-MB-231, Breast (TN); MTT, 72 h; ref Gilbert et al., 2020; cited from earlier work
[2] = tested on: SKBR3 breast cancer cells; settings: SKBR3, Breast (HER2); MTT, 72 h; ref Gilbert et al., 2020; cited from earlier work
BE2-C (neuronal) cells = settings: Neuron, MTT, 72 h, ref Gilbert et al., 2020; cited from earlier work
BT20 breast cancer cells = settings: BT20, Breast (TN); MTT, 72 h; ref Gilbert et al., 2020; cited from earlier work
MIA (pancreas) cells = settings: MTT, 72 h, ref Gilbert et al., 2020; cited from earlier work
[3] = tested on: MCF-7 breast cancer cells; settings: MCF-7, Breast (ER); MTT, 72 h; ref Gilbert et al., 2020; cited from earlier work
T47D breast cancer cells = settings: Breast (ER/PR), MTT, 72 h, ref Gilbert et al., 2020; cited from earlier work
A2780 (ovary) cells = settings: MTT, 72 h, ref Gilbert et al., 2020; cited from earlier work

In the case of `Nc1ccccc1N1C(=O)c2cccc3cccc(c23)C1=O` [Compound 2, 2-(2-aminophenyl)-1H-benzo[de]isoquinoline-1,3(2H)-dione], the GI50 [1] is listed as 35 ± 3 µM, the GI50 [2] is listed as 0.22 ± 0.02 µM and the GI50 (BE2-C (neuronal) cells) is listed as over 50 µM. For the same compound, the GI50 (BT20 breast cancer cells) was 14 ± 1.5 µM, the GI50 (MIA (pancreas) cells) was over 50 µM and the GI50 [3] was 0.7 ± 0.12 µM. For the same compound, the GI50 (T47D breast cancer cells) was 0.18 ± 0.02 µM and the GI50 (A2780 (ovary) cells) was 21 ± 4 µM.
